Experimental data reported in PMC3404106, “Pharmacology of DB844, an Orally Active aza Analogue of Pafuramidine, in a Monkey Model of Second Stage Human African Trypanosomiasis” (PLoS Neglected Tropical Diseases, 2012).
“Also recorded” adds a separate entry of the source.

How the values were obtained:
[1] = system: Trypanosoma brucei rhodesiense KETRI 2537; set-up: method as in earlier work; conditions: treatment initiated at 28 DPI; unpublished TRC-KARI data; cited from earlier work
2nd stage HAT = system: 2nd stage HAT; set-up: method as in PMID 19620327, PMID 19064893; conditions: cited from earlier work
[2] = Pharmacokinetics (plasma and CSF) in infected monkeys after last DB844 dose; conditions: for Tmax: po
[3] = set-up: method as in PMID 17360833; conditions: dosed orally to cynomolgus monkey at 5 mg/kg; cited from earlier work
[4] = set-up: method as in PMID 20721830; conditions: extended phase I clinical trial, 14 day dose regimen of 100 mg bid; cited from earlier work
[5] = Metabolism of DB844 in vervet monkey liver microsomes; format: in vitro ADME
Procedure: The metabolism of DB844 was investigated using liver microsomes, prepared from a male vervet monkey by XenoTech, LLC (Lenexa, KS), in the presence of NADPH as described previously with modifications. Briefly, incubation mixtures (1 ml at pH7.4, in triplicate) contained 10 µM DB844 and 0.2 mg/ml monkey liver microsomes. After a 5-min equilibration period at 37°C, reactions were initiated with the addition of NADPH. Aliquots (50 µl) of the reaction mixtures were removed at 0, 5, 10, 15, 30, 60, 90, and 120 min and mixed with 25 µl of ice-cold acetonitrile. The mixtures were centrifuged (10,000×g for 5 min at 4°C) and the supernatants were analyzed by HPLC/UV using the same method as previously described for DB289 [22]. […] DB844 and metabolites were quantified using a single-concentration calibration curve generated using synthetic standards.

## N=C(N)c1ccc(OCCCCCOc2ccc(C(=N)N)cc2)cc1 [pentamidine]
[1]
  cure in the vervet monkey model of CNS stage HAT: non-curative; also recorded: did not cure any monkey
2nd stage HAT
  cure against 2nd stage HAT in animal models: did not achieve cure

## N=C(N)c1ccc(-c2ccc(-c3ccc(C(=N)N)cn3)o2)cc1 [DB820]
[2]; 2/7 monkeys (571 and 624), between 24 and 96 h post dose
  sporadic CSF concentration: < 4 nM
[2]; after last dose of DB844 6 mg/kg×14 days, samples at 1, 24, 96, 168 h and weekly
  detection in the CSF: not detected
[2]; monkey, in vivo, 6 mg/kg
  concentration at 28 days: 35 nM
[2]; monkey, in vivo, 6 mg/kg, Tmax, plasma, after the 14th oral dose of DB844 at 6 mg/kg, n = 7, median, analyte = label
  Tmax: 4.08 h
[2]; monkey, in vivo, 6 mg/kg, time of peak plasma concentration, after the last (14th) dose of DB844 at 6 mg/kg, analyte = label
  Tmax: 4 h
[2]; plasma, after the 14th oral dose of DB844 at 6 mg/kg, n = 7, geometric mean, analyte = label
  AUClast: 1400 nmol·days/L

## CONC(=N)c1ccc(-c2ccc(-c3ccc(C(=N)NOC)cc3)o2)cc1 [pafuramidine, 2,5-bis(4-amidinophenyl)furan-bis-O-methylamidoxime]
[1]
  cure in the vervet monkey model of CNS stage HAT: non-curative; also recorded: did not cure any monkey
[3]
  Cmax: 30 to 35 nM
2nd stage HAT
  cure against 2nd stage HAT in animal models: did not achieve cure
[4]
  subjects who developed delayed renal insufficiency: 6%

## CO/N=C(/N)c1ccc(-c2ccc(-c3ccc(/C(N)=N/O)cc3)o2)nc1 [M1B]
[5]
  relative metabolite concentration in the drug/liver microsome mixture: highest concentrations during the initial 20 minutes
